From US20210322393A1, “METHODS OF TREATING COGNITIVE IMPAIRMENT ASSOCIATED WITH NEURODEGENERATIVE DISEASE” (Aptinyx Inc., priority 2019, published 2021)

Columns and labels:
Assay type in all cases: in vivo
Tolerability in rat = assay: Tolerability in rat
[1] = Pharmacokinetic profile in dog
[2] = tested on: MPTP non-human primate model of Parkinson's disease cognitive impairment; assay: Chronic low dose MPTP non-human primate model of Parkinson's disease cognitive impairment
[3] = tested on: rodent cognitive models (novel object recognition); assay: Novel object recognition rodent cognitive model
Tolerability in dog = assay: Tolerability in dog
[4] = tested on: rodent cognitive models (Morris water maze); assay: Morris water maze rodent cognitive model
[5] = Pharmacokinetic profile in rat

With `COc1ccc(CN2C[C@@]3(CCNC(=O)C3)C2=O)cc1` [The Compound, (S) 2-(4-methoxybenzyl)-2,7-diazaspiro[3.5]nonane-1,6-dione] the tolerability (Tolerability in rat) was “well tolerated”, the pharmacokinetic profile [1] was “favorable pharmacokinetic profile” and the “onset, size and duration of effect” value ([2]; MPTP non-human primate study) was “rapid, robust, and long lasting effect”. The “effect on MPTP-induced cognitive deficits (attention, working memory, executive function)” value ([2]; primate versions of Cambridge Neuropsychological Test Automated Battery assessments) was “reversed MPTP-induced deficits in several cognitive domains”, the “efficacy in novel object recognition” value [3] was “robust efficacy” and the tolerability (Tolerability in dog) was “well tolerated”. For the same compound, the “efficacy in Morris water maze” value [4] was “robust efficacy” and the pharmacokinetic profile [5] was “favorable pharmacokinetic profile”.
